The subject of series [1] is R. erythropolis DSM44534 and R. erythropolis PCM2150. Description: Substrate inhibition in preparative biotransformation. Format: cell-based, Rhodococcus erythropolis. Conditions: preparative scale, high concentration of substrate (0.2 g in 500 mL PCM medium). The procedure: (§1) Five hundred millilitres of PCM medium was added into a 2,000-mL Erlenmeyer flask and sterilized at 121°C for 15 min. The medium was inoculated with 5 mL of pre-prepared bacterial cultures at OD600 = 0.3–0.5. The cultures were incubated at 22°C under shaking at 150 rpm for 3 days. Then, 0.2 g of diols 1b–5b dissolved in 5 mL of DMSO was added into the cultures. The samples were extracted after 3, 7, 11 days and evaluated by GC to estimate the progress of the biotransformation.

For another series, the system named is Caco-2 cells. Description: Resazurin-based viability assay. Format: cell-based, human. Conditions: 24 h, 1, 50 and 200 μg/mL. Put shortly: (§2)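 HepG2 and Caco-2 cells, 20,000 per well, exposed 24 h to compounds at 1, 50 and 200 μg/mL (from ethanol stock) alongside ethanol-only controls. Viability read with 10% resazurin for 2 h at 37°C, absorbance 600 nm against 690 nm reference.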
Background: Resazurin is reduced to fluorescent resorufin, in cell work by metabolically active cells.

The next series relates to HepG2 cells. Description: Resazurin-based viability assay. Format: cell-based, human. The following applies: 24 h, 1, 50 and 200 μg/mL. The procedure, abridged: as §2
Series [2] can be described thus: Haemolytic activity assay. The following applies: human red blood cells (RBCs) from healthy donors, 37°C, read-out: Percentage of haemolysis. Type of series: cell-based.
In another series the test system is Dietzia sp. DSM44016. Description: Substrate toxicity in preparative biotransformation. Type of series: cell-based. The following applies: preparative scale, 0.2 g substrate in 500 mL PCM medium. The procedure: as §1
A further series has as its system RBCs membrane. Put plainly: Fluorescence spectroscopy of the RBCs membrane (DPH probe anisotropy). Type of series: cell-based, human. The following applies: for Fluorescence anisotropy of the DPH probe: membranes of RBCs, 37 °C.
The next series deals with C. albicans 636/20. Description: Fungistatic activity assay, broth microdilution. Format: cell-based. The following applies: Candida albicans; C. albicans 636/20, 24 h, 35°C, tested 10–250 μg/mL; read-out: MIC50. Background: Broth dilution looks for growth in wells or tubes with falling amounts of substance.
For the next series, the system named is C. albicans ATTC 90028. Put plainly: Fungistatic activity assay, broth microdilution. Format: cell-based. Conditions: Candida albicans; C. albicans ATTC90028, 24 h, 35°C, tested 10–250 μg/mL; read-out: MIC50.

Values after ≈ are worked out from the molar mass of the structure shown.

With `CC(O)C(O)c1ccccc1` (stereo not shown) [2b, 1-phenylpropane-1,2-diol], the “Inhibitory effect of substrate on the strains (in words)” value in series [1] is given as “inhibitory effect”. Further, the “Effect on Caco-2 proliferation / viability (in words)” value with Caco-2 cells is listed as “strongest inhibition”. Besides, the “Effect on HepG2 proliferation / viability (in words)” value in the series on HepG2 cells is reported as “highest inhibitory effect”. Further, the hemolysis at 1 h, 10 µM in series [2] (10 µM) amounted to 1.04 ± 0.275%. The hemolysis at 1 h, 20 µM in series [2] (20 µM) is 1.08 ± 0.107%. Also, in series [2] (40 µM), the hemolysis at 1 h, 40 µM stood at 1 ± 0.295%. For the same molecule, the hemolysis at 1 h, 60 µM in series [2] (60 µM) was 1.32 ± 0.255%. Besides, the hemolysis at 1 h, 80 µM in series [2] (80 µM) is 1.79 ± 0.382%. In addition, the hemolysis at 1 h, 100 µM in series [2] (100 µM) is 1.71 ± 0.054%. Moreover, in the series on Dietzia sp. DSM44016, the “Toxicity of substrate to the strain (in words)” value is “toxic”. Also, in the series on RBCs membrane (RBCs, 20, 60 and 100 μM), the “Change in DPH anisotropy / RBCs membrane fluidity (in words)” value was “increase in anisotropy”. The “Fluorescence anisotropy of the DPH probe” value in the series with RBCs membrane (20 µM) amounted to 0.286 ± 0.015; with RBCs membrane (60 µM), 0.277 ± 0.028; in the series with RBCs membrane (100 µM) it was 0.278 ± 0.011. For the same molecule, the figures for the MIC50 in the series with C. albicans 636/20 and with C. albicans ATTC 90028 were 121 µg/mL (≈ 795 µM) and 125 µg/mL (≈ 821 µM), respectively.

These data come from PMC10330721, “Chemo-enzymatic synthesis and biological activity evaluation of propenylbenzene derivatives” (Frontiers in Microbiology, 2023).
